pEC50: −log10 of the molar value.
How the values were obtained:
[1] = tested on: CNGA2:CNGA4:CNGB1b channels; design: method as in PMID 17665892; details: cited from earlier work
[2] = target: T1, homotetrameric HCN2 channels (Mus musculus, UniProt O88703); assay: Concentration-activation relationship of homotetrameric HCN2 channels, inside-out patches of Xenopus oocytes; format: cell-based; details: for H (Hill coefficient) / pEC50: homotetrameric HCN2 channels, mean; for pEC50: pre-activation at -130 mV, instantaneous current at -100 mV
T1 construct: expressed in transfected cells; host or cells: Xenopus laevis oocytes injected with cRNA; inside-out patches
T1 sequence (O88703 1-863): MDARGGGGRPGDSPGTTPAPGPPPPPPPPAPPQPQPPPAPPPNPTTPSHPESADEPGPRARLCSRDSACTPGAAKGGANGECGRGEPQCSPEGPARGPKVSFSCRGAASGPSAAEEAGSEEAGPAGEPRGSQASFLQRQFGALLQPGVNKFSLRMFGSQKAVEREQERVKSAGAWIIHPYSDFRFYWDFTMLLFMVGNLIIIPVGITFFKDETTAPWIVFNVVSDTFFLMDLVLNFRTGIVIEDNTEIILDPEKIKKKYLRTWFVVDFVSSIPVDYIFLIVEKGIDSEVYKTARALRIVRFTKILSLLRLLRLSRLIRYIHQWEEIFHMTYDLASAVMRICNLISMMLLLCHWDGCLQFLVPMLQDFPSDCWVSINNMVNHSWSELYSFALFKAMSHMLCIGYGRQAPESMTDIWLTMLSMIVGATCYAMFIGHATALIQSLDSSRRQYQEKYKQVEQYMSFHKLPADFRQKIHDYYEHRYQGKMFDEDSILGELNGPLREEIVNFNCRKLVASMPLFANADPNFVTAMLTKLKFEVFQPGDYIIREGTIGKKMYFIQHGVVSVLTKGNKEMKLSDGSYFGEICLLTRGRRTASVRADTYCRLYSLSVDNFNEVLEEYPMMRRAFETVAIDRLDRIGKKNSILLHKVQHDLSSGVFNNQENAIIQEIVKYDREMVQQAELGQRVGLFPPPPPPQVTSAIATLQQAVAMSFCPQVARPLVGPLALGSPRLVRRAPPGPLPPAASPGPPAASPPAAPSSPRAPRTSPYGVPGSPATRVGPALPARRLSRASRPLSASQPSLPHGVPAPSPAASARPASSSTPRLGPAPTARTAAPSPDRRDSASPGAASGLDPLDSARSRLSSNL
Protocol: (§1) The subunits CNGA2 (accession No. AF126808), CNGA4 (accession No. U12623) and CNGB1b (accession No. AF068572) of rat olfactory channels as well as mouse HCN2 channels (NM008226) were subcloned in front of the T7 promoter of pGEMHEnew. The respective cRNAs were produced by using the mMESSAGE mMACHINE T7 Kit (Ambion, Austin, TX).
The oocytes were exposed to collagenase A (3 mg/ml; Roche, Grenzach-Wyhlen, Germany) for 105 min in Ca^2+-free Barth’s solution containing (in mM) 82.5 NaCl, 2 KCl, 1 MgCl2 2, and 5 Hepes, pH 7.4. Oocytes at stages IV and V were injected with 50–130 ng of cRNA encoding either CNGA2, CNGA2:CNGA4:CNGB1b (2:1:1 ratio) or HCN2 channels either manually of or by means of an injection robot (RoboInject®). The injected oocytes were incubated at 18 °C for up to 6 days in Barth’s solution containing (in mM) 84 NaCl, 1 KCl, 2.4 NaHCO3, 0.82 MgSO4, 0.41 CaCl2, 0.33 Ca(NO3)2, 7.5 TRIS, cefuroxime (4.0 µg × ml^−1), and penicillin/streptomycin (100 µg × ml^−1), pH 7.4.
(§2) Macroscopic currents were recorded from inside-out patches of the oocytes by using standard patch-clamp techniques. The patch pipettes were pulled from quartz tubing (P-2000, Sutter Instrument, Novato, USA) with an outer and inner diameter of 1.0 and 0.7 mm (VITROCOM, New Jersey, USA). The corresponding pipette resistance was 0.9–2.3 MΩ. The bath and pipette solution contained (in mM): 150 KCl, 1 EGTA, 5 Hepes (pH 7.4 with KOH) for CNG measurements. For HCN measurements the bath solution contained 100 mM KCl, 10 mM EGTA, 10 mM HEPES (pH 7.2) and 120 mM KCl, 10 mM HEPES, and 1.0 mM CaCl2 (pH 7.2) in the pipette. Recording was carried out at room temperature using an Axopatch 200B amplifier (Axon Instruments, Foster City, CA). Electrophysiology was controlled by the Patchmaster-software (HEKA Elektronik Dr. Schulze GmbH, Lambrecht, Germany). The sampling rate was 5 kHz and the filter implemented in the amplifier (4-pole Bessel) was set to 2 kHz. Measurements in HCN2 channels were generally started 3.5 min after patch excision to minimize channel run down during the measurement[14],[27],[70]. The solutions with the ligand concentrations to be tested were applied via a multi-barrel device to the patches with a flow rate of 0.8 to 1.2 ml/min.
(§3) I is the actual current amplitude and Imax the maximum current amplitude at a saturating cNMP concentration specified for each cNMP and channel. EC50 is the cNMP concentration generating the half maximum current and H the Hill coefficient.

[3] = target: T2, homotetrameric CNGA2 channels (Rattus norvegicus, UniProt Q00195); assay: Concentration-activation relationship of homotetrameric CNGA2 channels, inside-out patches of Xenopus oocytes; format: cell-based
T2 construct: expressed in transfected cells; host or cells: Xenopus laevis oocytes injected with cRNA; inside-out patches
T2 sequence (Q00195 1-664): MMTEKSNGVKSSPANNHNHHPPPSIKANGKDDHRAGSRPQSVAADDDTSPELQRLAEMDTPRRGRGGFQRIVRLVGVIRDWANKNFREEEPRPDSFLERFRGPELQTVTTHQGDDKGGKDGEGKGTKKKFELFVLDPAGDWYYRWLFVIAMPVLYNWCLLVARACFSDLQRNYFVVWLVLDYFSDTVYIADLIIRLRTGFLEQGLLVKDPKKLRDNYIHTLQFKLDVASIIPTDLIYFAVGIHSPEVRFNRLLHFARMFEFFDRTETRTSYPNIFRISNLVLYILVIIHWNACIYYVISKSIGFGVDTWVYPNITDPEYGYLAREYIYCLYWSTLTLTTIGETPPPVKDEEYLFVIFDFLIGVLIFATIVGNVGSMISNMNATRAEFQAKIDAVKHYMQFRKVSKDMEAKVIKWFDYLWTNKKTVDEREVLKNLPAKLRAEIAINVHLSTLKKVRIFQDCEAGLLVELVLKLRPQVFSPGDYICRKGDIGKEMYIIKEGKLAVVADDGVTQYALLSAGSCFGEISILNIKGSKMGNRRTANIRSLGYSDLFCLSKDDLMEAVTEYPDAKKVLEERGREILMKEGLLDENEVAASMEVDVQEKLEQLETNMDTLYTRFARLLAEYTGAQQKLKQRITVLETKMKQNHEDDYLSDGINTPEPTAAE
Protocol: (§4) For each cNMP derivative a complete concentration-activation relationship was recorded, and the data points were fitted with the Hill equation (equation 1) yielding the concentration of half maximum activation (EC50) and the Hill coefficient H (Fig. 1b,c).
as §1
(§5) Oocytes at stages IV and V were injected with 50–130 ng of cRNA encoding either CNGA2, CNGA2:CNGA4:CNGB1b (2:1:1 ratio) or HCN2 channels either manually of or by means of an injection robot (RoboInject®). The injected oocytes were incubated at 18 °C for up to 6 days in Barth’s solution containing (in mM) 84 NaCl, 1 KCl, 2.4 NaHCO3, 0.82 MgSO4, 0.41 CaCl2, 0.33 Ca(NO3)2, 7.5 TRIS, cefuroxime (4.0 µg × ml^−1), and penicillin/streptomycin (100 µg × ml^−1), pH 7.4.
as §2, §3

[4] = target: T3, heterotetrameric CNGA2:CNGA4:CNGB1b channels (Rattus norvegicus, UniProt A0A8I5ZN27+Q00195+Q64359); assay: Concentration-activation relationship of heterotetrameric CNGA2:CNGA4:CNGB1b channels, inside-out patches of Xenopus oocytes; format: cell-based; details: heterotetrameric CNGA2:CNGA4:CNGB1b channels, mean; for pEC50: late current at +10 mV
T3 construct: expressed in transfected cells; host or cells: Xenopus laevis oocytes co-injected with cRNAs (2:1:1); inside-out patches
Protocol: as §4, §1, §5, §2, §3

CNGA2 channels = target: T4, CNGA2 channels (Rattus norvegicus, UniProt Q00195); assay: Activation and deactivation kinetics by concentration jumps, CNGA2 channels; format: cell-based
T4 construct: expressed in transfected cells; host or cells: Xenopus laevis oocytes injected with cRNA; inside-out patches
T4 sequence (Q00195 1-664): T2 sequence (Q00195 1-664)
Text: (§6) We applied concentration jumps from zero to a defined level and back to zero, yielding the time constants τa and τd, respectively (c.f. Methods section). If the enhancement of the apparent affinity is caused by solely accelerating the binding rate, τa would be decreased and τd would be unaffected. Conversely, if the hydrophobic alkyl chain enhances the apparent affinity by solely decelerating the unbinding rate, τd would be increased and τa could be increased preferentially at lower concentrations.
(§7) In experiments designed to record activation and deactivation kinetics in CNG channels, theta-glass pipettes were used in which one barrel contained control solution and the other barrel the test solution supplemented with the ligand. The theta-glass pipette was mounted on a piezo actuator which was controlled by the computer controlling the voltage protocols. The effective switch time of the solution exchange, t10–90, determined by an open patch pipette and different solutions in the barrels, was negligible compared to the time courses of activation and deactivation to be considered. […]
(§8) The speed of activation and deactivation was determined by fitting the respective time courses with single exponentials yielding the time constant τ. […] To quantify the time course at a given cNMP concentration for a number of measurements τwm and τ were treated equally. […]

[5] = target: T5, CNGA2:CNGA4:CNGB1b channels (Rattus norvegicus, UniProt A0A8I5ZN27+Q00195+Q64359); assay: Activation and deactivation kinetics by concentration jumps, CNGA2:CNGA4:CNGB1b channels; format: cell-based
T5 construct: expressed in transfected cells; host or cells: Xenopus laevis oocytes co-injected with cRNAs (2:1:1); inside-out patches
Text: as §6, §7, §8

[6] = CNGA2 channels, numeric mean values of box plots (Fig. 2a,b, Fig. 3) and text
[7] = homotetrameric CNGA2 channels, mean
[8] = homotetrameric CNGA2 channels, late current at +10 mV, mean

T3 sequence (Q64359 whole entry, one chain of several): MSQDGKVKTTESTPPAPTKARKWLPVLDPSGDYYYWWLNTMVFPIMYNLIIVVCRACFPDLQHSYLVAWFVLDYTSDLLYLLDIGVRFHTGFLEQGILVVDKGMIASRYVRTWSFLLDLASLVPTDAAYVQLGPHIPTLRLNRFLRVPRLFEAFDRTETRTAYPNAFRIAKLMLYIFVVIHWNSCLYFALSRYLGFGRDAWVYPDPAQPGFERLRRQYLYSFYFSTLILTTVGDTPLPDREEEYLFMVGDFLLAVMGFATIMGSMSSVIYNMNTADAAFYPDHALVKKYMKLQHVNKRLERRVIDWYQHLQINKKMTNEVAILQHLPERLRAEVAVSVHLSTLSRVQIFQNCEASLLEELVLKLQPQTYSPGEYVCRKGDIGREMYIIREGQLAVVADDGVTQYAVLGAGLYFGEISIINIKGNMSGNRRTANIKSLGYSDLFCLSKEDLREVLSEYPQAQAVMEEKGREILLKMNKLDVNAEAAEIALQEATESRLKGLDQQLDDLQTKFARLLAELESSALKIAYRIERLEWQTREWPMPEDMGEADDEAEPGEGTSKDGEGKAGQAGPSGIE
T3 sequence (A0A8I5ZN27 1-858 isoform A0A8I5ZN27-2, one chain of several): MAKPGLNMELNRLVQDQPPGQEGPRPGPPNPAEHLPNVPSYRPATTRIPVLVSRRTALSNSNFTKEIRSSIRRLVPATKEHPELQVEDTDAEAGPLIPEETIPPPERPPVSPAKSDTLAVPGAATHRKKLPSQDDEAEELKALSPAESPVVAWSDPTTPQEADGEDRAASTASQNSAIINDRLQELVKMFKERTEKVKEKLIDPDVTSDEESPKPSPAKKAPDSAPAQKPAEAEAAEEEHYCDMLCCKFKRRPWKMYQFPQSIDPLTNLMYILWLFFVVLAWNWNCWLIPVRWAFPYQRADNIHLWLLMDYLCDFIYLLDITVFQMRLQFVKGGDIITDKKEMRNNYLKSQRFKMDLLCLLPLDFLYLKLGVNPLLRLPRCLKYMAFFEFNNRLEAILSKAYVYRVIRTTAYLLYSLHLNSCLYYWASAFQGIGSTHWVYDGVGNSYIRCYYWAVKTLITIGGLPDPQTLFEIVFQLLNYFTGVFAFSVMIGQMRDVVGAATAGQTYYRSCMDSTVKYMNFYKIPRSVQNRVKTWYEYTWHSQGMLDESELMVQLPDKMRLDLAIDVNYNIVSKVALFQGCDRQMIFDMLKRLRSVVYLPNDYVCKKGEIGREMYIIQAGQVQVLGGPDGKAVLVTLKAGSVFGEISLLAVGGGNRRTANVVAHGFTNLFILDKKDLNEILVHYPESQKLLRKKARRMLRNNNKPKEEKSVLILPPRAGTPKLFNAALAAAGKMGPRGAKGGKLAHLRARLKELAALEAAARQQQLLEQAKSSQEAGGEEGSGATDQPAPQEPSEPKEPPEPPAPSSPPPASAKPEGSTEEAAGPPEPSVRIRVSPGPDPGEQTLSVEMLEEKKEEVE
T5 sequence (Q64359 whole entry, one chain of several): as the sequence (Q64359 whole entry, one chain of several) above
T5 sequence (A0A8I5ZN27 1-858 isoform A0A8I5ZN27-2, one chain of several): as the sequence (A0A8I5ZN27 1-858 isoform A0A8I5ZN27-2, one chain of several) above

Nc1nc2c(nc(Sc3ccc(Cl)cc3)n2C2O[C@@H]3COP(=O)(O)O[C@H]3[C@H]2O)c(=O)[nH]1 (stereo in doubt) [8-pCPT-cGMP]
pEC50 [1]: 7.14

Nc1ncnc2c1ncn2C1OC2COP(=O)(O)OC2C1O (centres unmarked) [1A, cAMP, reference compound]
H ([2]; individual experiment, Fig. 5b, HCN2 channels): 1.28

CC(=O)NCCSc1nc2c(N)ncnc2n1C1OC2COP(=O)(O)OC2C1O (centres unmarked) [3A, 8-(Ac)AET-cAMP]
H (Hill coefficient) [2]: 1.7 | pEC50 [2]: 7.15 | pEC50 [3, 6]: 5.00 | H (Hill coefficient) [3, 7]: 2.3 | pEC50 [4]: 5.39 | H (Hill coefficient) [4]: 1.8

CC(=O)NCCCCCCSc1nc2c(N)ncnc2n1C1OC2COP(=O)(O)OC2C1O (centres unmarked) [5A, 8-(Ac)AHT-cAMP]
H (Hill coefficient) [2]: 0.8 | pEC50 [2]: 7.71 | pEC50 [3, 8]: 5.85 | H (Hill coefficient) [3, 7]: 3.1 | pEC50 [4]: 6.02 | H (Hill coefficient) [4]: 2.5

CC(=O)NCCCCCCSc1nc2c(=O)[nH]c(N)nc2n1C1OC2COP(=O)(O)OC2C1O (centres unmarked) [5G, 8-(Ac)AHT-cGMP]
deactivation time constant τd compared to cGMP (1G) (CNGA2 channels; all tested concentrations): approximately an order of magnitude increased | activation time constant τa compared to cGMP (1G) (CNGA2 channels; at concentrations lower than 1 µM): larger | deactivation compared to the effect with CNGA2 channels ([5]; 10 µM): slowed to a much lower degree | activation time constant τa ([5]; low concentrations): not affected | pEC50 [3, 8]: 7.10 | H (Hill coefficient) [3, 7]: 2.7 | pEC50 [4]: 6.64 | H (Hill coefficient) [4]: 2.0

CC(=O)NCCCCCCCCCCSc1nc2c(N)ncnc2n1C1OC2COP(=O)(O)OC2C1O (centres unmarked) [7A, 8-(Ac)ADT-cAMP]
H (Hill coefficient) [2]: 1.5 | pEC50 [2]: 7.84 | pEC50 [3, 8]: 5.64 | H (Hill coefficient) [3, 7]: 2.4 | pEC50 [4]: 6.33 | H (Hill coefficient) [4]: 2.7

CC(=O)NCCOCCOCCSc1nc2c(N)ncnc2n1C1OC2COP(=O)(O)OC2C1O (centres unmarked) [8A, 8-(Ac)APT-cAMP]
H (Hill coefficient) [2]: 0.9 | pEC50 [2]: 6.84 | pEC50 [3, 8]: 4.60 | H (Hill coefficient) [3, 7]: 2.4 | pEC50 [4]: 5.22 | H (Hill coefficient) [4]: 2.2

CC(=O)NCC(=O)NCCSc1nc2c(N)ncnc2n1C1OC2COP(=O)(O)OC2C1O (centres unmarked) [10A, 8-(Ac)AGET-cAMP]
H (Hill coefficient) [2]: 1.5 | pEC50 [2]: 7.01 | pEC50 [3, 6]: 4.46 | pEC50 [3, 8]: 4.47 | H (Hill coefficient) [3, 7]: 2.1 | pEC50 [4]: 5.18 | H (Hill coefficient) [4]: 2.2

From article PMC6175941, “Hydrophobic alkyl chains substituted to the 8-position of cyclic nucleotides enhance activation of CNG and HCN channels by an intricate enthalpy - entropy compensation” (Scientific Reports, 2018)
